From publication PMC8778314, “A New Series of Indeno[1,2-c]pyrazoles as EGFR TK Inhibitors for NSCLC Therapy” (Molecules, 2022)

Legend:
[1] = test system: A549 human lung adenocarcinoma cells; experiment: MTT cell viability assay, A549 cells; conditions: A549, 72 h, read-out: IC50 (µM) A549 Cells
Procedure: (§2) In experiments, K562 cells and PBMCs were cultured in 24-well and 96-well plates (Asahi Glass Co., Chiba, Japan) at 4 × 10^4 and 1 × 10^6 cells/mL concentrations, respectively, for 48 h. A549 cells were plated (24-well plate) at 1 × 10^4 cells/mL and incubated for 72 h (the optimal cell number was determined in our previous studies) [34, 35, 36]. The stock solutions of the compounds and erlotinib in concentrations ranging from 1 µM to 10 mM were prepared in DMSO (Wako Pure Chemical Industries, Osaka, Japan) and further diluted with fresh culture medium. The final DMSO concentration was adjusted as 1%, which had no effect on the cell viability [37].
(§3) Then, supernatants were discarded, and the formazan crystals were solubilized with a 100 μL DMSO addition. The absorbance of the solution was measured using an Infinite M1000 microplate reader (Tecan, Grödig, Austria) at a wavelength of 570 and 630 nm.

[2] = test system: peripheral blood mononuclear cells (PBMCs); experiment: MTT cell viability assay, PBMCs; conditions: for cytotoxicity towards PBMCs (in words): MTT, normal cells; for IC50: PBMC, 48 h, read-out: IC50 (µM) PBMCs
Procedure: as §2, §3

[3] = test system: K562 chronic myelogenous leukemia (CML) cells; experiment: MTT cell viability assay, K562 cells; conditions: Homo sapiens, K562, 48 h, read-out: IC50 (µM) K562 Cells
Procedure: as §2, §3

[4] = molecular target: T1, EGFR TK (Homo sapiens, UniProt P00533); experiment: EGFR TK inhibition, kinase profiling / ADP-Glo Kinase Assay; assay type: biochemical; conditions: 4 h incubation at room temperature
T1 construct: purchased Promega Corporation
Procedure: Manufacturer′s instructions (Promega Corporation, Madison, WI, USA) were applied for the kinase profiling assay protocol (TK-1 and TK-2) with small changes [40, 41, 42]. […] The kinase working stocks (2 µL), 2 µL of the ATP/substrate working stocks, and 1 µL of the tested compound solution (3–100 µM) and erlotinib solution (0.01–100 µM) or 5% DMSO solution in the 384-well plate were used for the kinase reactions. Following the 4 h of incubation at room temperature, the activity of kinases was screened by means of the ADP-Glo Kinase Assay (Promega Corporation, Madison, WI, USA) based on the manufacturer′s protocol. The Infinite M1000 microplate reader (Tecan, Grödig, Austria) was used to measure the kinase inhibitory effects of the compounds in a dose-response manner. Besides, the IC50 values of the tested compounds were determined using ImageJ software.

[5] = test system: A549 cells; experiment: Annexin V/ethidium homodimer III staining assay (apoptosis); assay type: cell-based, human; conditions: IC50 concentrations, 15 h
Procedure: Then, an apoptotic/necrotic cell detection kit (PromoKine, Heidelberg, Germany) was used according to manufacturer′s instructions with some modifications. Briefly, the cells were washed twice with 1× binding buffer, a staining solution containing 50 μL of 1× binding buffer, 5 μL of FITC-Annexin V solution, and 5 μL of ethidium homodimer III solution, and treated for 30 min at room temperature in a protected-light environment. After washing of cells in 1× binding buffer, cells were analyzed under a Biorevo BZ-9000 all-in-one fluorescence microscope (Keyence, Osaka, Japan). The number of apoptotic cells, late apoptotic or necrotic cells, and necrotic cells was quantified as previously described.

[6] = molecular target: T2, HER2 (Homo sapiens, UniProt P04626); experiment: Kinase selectivity profiling TK-1, HER2; assay type: biochemical; conditions: 30 µM concentration
T2 construct: purchased Promega Corporation
Procedure: (§1) Manufacturer′s instructions (Promega Corporation, Madison, WI, USA) were applied for the kinase profiling assay protocol (TK-1 and TK-2) with small changes. According to this protocol, the kinase stocks in the kinase strips and their substrate stocks in the substrate strips were diluted with 95 µL of 2.5× kinase buffer and 15 µL of 100 µM ATP solutions, respectively. The kinase working stocks (2 µL), 2 µL of the ATP/substrate working stocks, and 1 µL of the tested compound solution (3–100 µM) and erlotinib solution (0.01–100 µM) or 5% DMSO solution in the 384-well plate were used for the kinase reactions. Following the 4 h of incubation at room temperature, the activity of kinases was screened by means of the ADP-Glo Kinase Assay (Promega Corporation, Madison, WI, USA) based on the manufacturer′s protocol. The Infinite M1000 microplate reader (Tecan, Grödig, Austria) was used to measure the kinase inhibitory effects of the compounds in a dose-response manner. Besides, the IC50 values of the tested compounds were determined using ImageJ software.

[7] = molecular target: T3, LCK (Homo sapiens, UniProt P06239); experiment: Kinase selectivity profiling TK-2, LCK; assay type: biochemical; conditions: 30 µM concentration
T3 construct: purchased Promega Corporation
Procedure: as §1

T1 sequence (P00533 25-1210): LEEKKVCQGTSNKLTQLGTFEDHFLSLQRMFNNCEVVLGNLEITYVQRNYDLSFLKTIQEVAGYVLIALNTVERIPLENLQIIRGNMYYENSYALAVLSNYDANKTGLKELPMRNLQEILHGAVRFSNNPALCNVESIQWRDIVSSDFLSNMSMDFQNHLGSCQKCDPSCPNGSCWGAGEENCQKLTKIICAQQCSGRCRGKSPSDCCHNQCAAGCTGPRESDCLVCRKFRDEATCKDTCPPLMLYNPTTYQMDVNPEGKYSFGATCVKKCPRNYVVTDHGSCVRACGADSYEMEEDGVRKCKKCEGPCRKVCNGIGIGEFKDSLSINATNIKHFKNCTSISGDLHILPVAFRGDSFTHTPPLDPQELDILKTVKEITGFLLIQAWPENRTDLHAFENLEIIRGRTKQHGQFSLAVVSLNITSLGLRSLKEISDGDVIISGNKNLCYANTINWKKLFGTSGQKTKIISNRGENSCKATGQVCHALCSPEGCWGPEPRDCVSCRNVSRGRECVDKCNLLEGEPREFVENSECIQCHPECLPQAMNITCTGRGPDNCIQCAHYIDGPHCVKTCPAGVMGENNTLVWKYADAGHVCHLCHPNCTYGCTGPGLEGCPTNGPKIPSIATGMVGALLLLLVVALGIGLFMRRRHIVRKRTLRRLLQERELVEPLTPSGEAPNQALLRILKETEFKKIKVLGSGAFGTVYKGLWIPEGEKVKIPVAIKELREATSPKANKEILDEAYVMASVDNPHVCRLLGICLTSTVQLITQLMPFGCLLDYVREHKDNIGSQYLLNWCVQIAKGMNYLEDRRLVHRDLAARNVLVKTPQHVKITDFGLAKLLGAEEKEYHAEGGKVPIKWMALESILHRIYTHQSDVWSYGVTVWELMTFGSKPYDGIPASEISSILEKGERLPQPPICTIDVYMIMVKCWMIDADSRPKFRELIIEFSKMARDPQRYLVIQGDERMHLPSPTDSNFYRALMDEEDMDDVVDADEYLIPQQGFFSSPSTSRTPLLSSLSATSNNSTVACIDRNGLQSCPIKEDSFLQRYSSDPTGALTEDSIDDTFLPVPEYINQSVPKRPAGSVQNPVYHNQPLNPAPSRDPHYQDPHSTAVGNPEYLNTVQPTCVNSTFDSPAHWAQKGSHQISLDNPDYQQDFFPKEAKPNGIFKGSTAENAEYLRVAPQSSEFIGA
T3 sequence (P06239 whole entry): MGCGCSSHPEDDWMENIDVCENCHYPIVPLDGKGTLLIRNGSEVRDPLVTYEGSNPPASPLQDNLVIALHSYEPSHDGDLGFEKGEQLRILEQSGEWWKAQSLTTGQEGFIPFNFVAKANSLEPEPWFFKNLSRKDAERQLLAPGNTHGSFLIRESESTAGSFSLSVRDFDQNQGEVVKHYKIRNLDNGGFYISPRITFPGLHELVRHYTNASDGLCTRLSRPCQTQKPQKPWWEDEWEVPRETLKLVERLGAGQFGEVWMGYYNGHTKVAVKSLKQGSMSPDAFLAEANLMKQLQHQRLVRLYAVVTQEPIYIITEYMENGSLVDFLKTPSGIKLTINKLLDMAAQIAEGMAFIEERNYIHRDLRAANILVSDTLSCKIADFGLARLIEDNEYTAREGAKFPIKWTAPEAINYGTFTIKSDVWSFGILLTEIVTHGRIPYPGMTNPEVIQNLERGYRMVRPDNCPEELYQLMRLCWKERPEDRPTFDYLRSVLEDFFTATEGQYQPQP
T2 sequence (P04626 23-1255): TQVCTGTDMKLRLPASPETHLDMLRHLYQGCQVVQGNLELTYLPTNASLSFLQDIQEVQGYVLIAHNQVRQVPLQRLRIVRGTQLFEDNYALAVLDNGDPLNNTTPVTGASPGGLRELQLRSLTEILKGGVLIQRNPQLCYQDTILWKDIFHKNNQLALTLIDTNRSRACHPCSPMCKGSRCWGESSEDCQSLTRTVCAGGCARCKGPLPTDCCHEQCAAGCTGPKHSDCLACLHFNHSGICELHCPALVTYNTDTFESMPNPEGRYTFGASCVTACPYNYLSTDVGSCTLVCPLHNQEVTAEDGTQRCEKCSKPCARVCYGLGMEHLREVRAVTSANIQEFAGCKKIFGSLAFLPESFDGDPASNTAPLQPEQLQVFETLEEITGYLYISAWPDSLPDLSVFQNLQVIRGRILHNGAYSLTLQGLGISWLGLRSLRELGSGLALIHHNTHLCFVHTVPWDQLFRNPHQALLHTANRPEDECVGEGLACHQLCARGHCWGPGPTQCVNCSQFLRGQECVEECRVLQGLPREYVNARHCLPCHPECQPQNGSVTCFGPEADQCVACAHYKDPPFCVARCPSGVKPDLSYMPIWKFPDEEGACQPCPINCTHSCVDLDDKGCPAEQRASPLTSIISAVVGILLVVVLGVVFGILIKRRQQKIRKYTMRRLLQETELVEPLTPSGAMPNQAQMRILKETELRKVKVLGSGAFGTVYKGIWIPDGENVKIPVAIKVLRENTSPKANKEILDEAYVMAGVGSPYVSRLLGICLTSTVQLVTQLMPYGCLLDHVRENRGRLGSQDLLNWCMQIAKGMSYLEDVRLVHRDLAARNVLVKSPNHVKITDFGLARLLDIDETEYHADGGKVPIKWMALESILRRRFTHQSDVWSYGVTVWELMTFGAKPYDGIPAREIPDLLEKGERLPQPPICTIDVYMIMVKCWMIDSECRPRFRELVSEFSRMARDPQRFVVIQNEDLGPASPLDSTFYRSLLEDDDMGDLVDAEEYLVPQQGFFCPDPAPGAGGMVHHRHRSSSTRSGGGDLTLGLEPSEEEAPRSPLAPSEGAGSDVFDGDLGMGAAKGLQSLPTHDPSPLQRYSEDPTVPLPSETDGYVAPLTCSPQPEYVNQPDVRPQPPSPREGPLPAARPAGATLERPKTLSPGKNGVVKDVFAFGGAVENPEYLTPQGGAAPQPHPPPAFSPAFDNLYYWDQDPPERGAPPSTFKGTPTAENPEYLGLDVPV

SMILES | IC50 [1] [µM] | IC50 [3] [µM] | IC50 [4] [µM] | melting point [°C] | HER2 inhibition compared to erlotinib [6] | LCK inhibition compared to erlotinib [7] | cytotoxicity towards PBMCs (in words) [2] | IC50 [2] [µM] | percentage of A549 cells undergoing apoptosis [5] [%]
COc1cc2c(cc1Cl)Cc1c-2nn(-c2ccccc2)c1-c1ccc(N2CCCCC2)cc1 [Compound 1, 6-Chloro-7-methoxy-2-phenyl-3-[4-(piperidin-1-yl)phenyl]-2,4-dihydroindeno[1,2-c]pyrazole] | 7.99 ± 1.84 | 3.49 ± 0.92 | 55.3 ± 8.68 |  |  |  | no significant cytotoxicity | 95.7 ± 11.7 | 
COc1cc2c(cc1Cl)Cc1c-2nn(-c2ccc(S(C)(=O)=O)cc2)c1-c1ccc(N2CCCCC2)cc1 [Compound 6, 6-Chloro-7-methoxy-2-(4-(methylsulfonyl)phenyl)-3-[4-(piperidin-1-yl)phenyl]-2,4-dihydroindeno[1,2-c]pyrazole] | > 10 |  |  | 116 to 117 |  |  |  |  | 
C#Cc1cccc(Nc2ncnc3cc(OCCOC)c(OCCOC)cc23)c1 [Erlotinib, reference compound] | 19.7 ± 3.15 | 29.6 ± 5.26 |  |  |  |  |  | 44.3 ± 7.84 | 53.60

More lines, main results first:

IC50 [1] [µM] | IC50 [3] [µM] | IC50 [4] [µM] | melting point [°C] | HER2 inhibition compared to erlotinib [6] | LCK inhibition compared to erlotinib [7] | SMILES | cytotoxicity towards PBMCs (in words) [2] | IC50 [2] [µM] | percentage of A549 cells undergoing apoptosis [5] [%]
> 10 |  |  | 188 to 190 |  |  | COc1cc2c(cc1Cl)Cc1c-2nn(-c2ccc(F)cc2)c1-c1ccc(N2CCCCC2)cc1 [Compound 2, 6-Chloro-7-methoxy-2-(4-fluorophenyl)-3-[4-(piperidin-1-yl)phenyl]-2,4-dihydroindeno[1,2-c]pyrazole] |  |  | 
> 10 |  |  |  |  |  | COc1cc2c(cc1Cl)Cc1c-2nn(-c2ccc(Cl)cc2)c1-c1ccc(N2CCCCC2)cc1 [Compound 3, 6-Chloro-7-methoxy-2-(4-chlorophenyl)-3-[4-(piperidin-1-yl)phenyl]-2,4-dihydroindeno[1,2-c]pyrazole] |  |  | 
6.13 ± 1.42 | 2.65 ± 0.75 | 17.6 | 125 to 126 | more significantly than erlotinib | more significantly than erlotinib | COc1cc2c(cc1Cl)Cc1c-2nn(-c2ccc(Br)cc2)c1-c1ccc(N2CCCCC2)cc1 [Compound 4, 6-Chloro-7-methoxy-2-(4-bromophenyl)-3-[4-(piperidin-1-yl)phenyl]-2,4-dihydroindeno[1,2-c]pyrazole] | no significant cytotoxicity | 19.6 ± 4.25 | 56.30
> 10 |  |  |  |  |  | COc1cc2c(cc1Cl)Cc1c-2nn(-c2ccc(C#N)cc2)c1-c1ccc(N2CCCCC2)cc1 [Compound 5, 6-Chloro-7-methoxy-2-(4-cyanophenyl)-3-[4-(piperidin-1-yl)phenyl]-2,4-dihydroindeno[1,2-c]pyrazole] |  |  | 
8.67 ± 2.18 | 2.76 ± 0.83 | 46.7 ± 7.04 | 123 to 124 |  |  | COc1cc2c(cc1Cl)Cc1c-2nn(-c2ccc(C)cc2)c1-c1ccc(N2CCCCC2)cc1 [Compound 7, 6-Chloro-7-methoxy-2-(4-methylphenyl)-3-[4-(piperidin-1-yl)phenyl]-2,4-dihydroindeno[1,2-c]pyrazole] | no significant cytotoxicity | > 100 | 
